The format of data set [1] is physicochemical. An excerpt:
Compound (1) follows a linear profile described in the literature as an AL type, according to Higuchi and Connors. This behavior corresponds to a molar ratio of 1:1 between (1a) and β-CD, similar to that obtained using Job’s method. […] This value confirms that the equilibrium between (1) and β-CD shifts to the product, indicating a high tendency of (1) to enter the cavity of β-CD together with good stability of the (1a)@β-CD complex. […] Higuchi described this model as being AP, meaning a positive deviation from the linearity, corresponding to a 1:2 molar ratio between (2) and β-CD, in very good agreement with results obtained by Job’s method. This type of stoichiometry literature indicates a possibility of evaluating the stability constant starting from the equation of a quadratic model. Even if this is not a perfect model and the value calculated is affected by an error ~30%, reliable information about the stability of the (2a)@β -CD complex could be obtained. The model ensures the calculation of K1:1 and K1:2. The obtained values were 20.44 and 6 M^–1.
The method settled for phase-solubility studies was adapted from a previous paper. First, calibration curves for (1) and (2) were obtained. For this purpose, successive dilutions from the stock solution were performed, spectra were recorded and absorbance reeded 312 nm (1) and 272 nm (2). The plot of absorbance versus concentration gives two straight lines for both (1) and (2) complexes: y = 0.5111x − 0.0323 (R^2 = 0.9996) and y = 18.792x − 0.0323 (R^2 = 0.9996), respectively. Second, water and β-CD 20 mM were added to six samples containing an excess of complex (50 mg) that had the same volume but increasing β-CD concentration. In all experiments, the final volume was 5 mL. The samples were shaken for 1 h, filtered using 0.25 µm PTFE, and the solution was diluted to 1:25 mL before the spectra were recorded. The concentration of the complex in each solution was calculated using a calibration curve described above. In the end, the phase solubility diagrams were obtained by plotting the concentration of the complex versus the concentration of β-CD. The stability constants were calculated from the phase-solubility diagram as follows: (i) Kc = slope/[So × (1 − slope)], where So is the complex’s solubility in the absence of β-CD, for a 1:1 mole ratio, and (ii) STotal = S0 + K1:1[β-CD] + K1:1K1:2[β-CD]^2, where K1:1 and K1:2 are constants for 1:1 and 1:2 host–guest complexes and STotal is the total solubility of complex, for a 1:2 stoichiometry.

Data set [2] has as its system biofilm-embedded cells. In words: Crystal-violet microtiter anti-biofilm assay (MBEC). In kind it is cell-based. On the procedure:
(§1) The antibacterial activity of the inclusion complexes was evaluated on the Gram-negative Escherichia coli ATCC 25922 and Gram-positive Staphylococcus aureus ATCC 25923 reference bacterial strains. The antibacterial activity of the β-CD, precursor complexes, and inclusion complexes was evaluated against planktonic and biofilm-embedded cells to obtain the minimum inhibitory (MIC) and minimum biofilm eradication (MBEC) concentrations, respectively. The antibacterial activity assays were carried out on the Gram-negative E. coli ATCC 25922 and the Gram-positive S. aureus ATCC 25923 reference strains. The antimicrobial activity of the β-CD inclusion complexes versus the β-CD and Cu(II) complexes against planktonic bacterial cells was assessed using the microdilution assay, allowing MIC determination. Anti-biofilm activity was evaluated using the crystal-violet microtiter to determine the MBEC [25]. All experiments were performed in triplicate. In both assays, serial binary concentrations ranging from 8.81 to 0.013 mM were used.

Data set [3] has as its system Escherichia coli ATCC 25922. Set-up: method as in PMID 34833864. The conditions noted are these: E. coli, planktonic cells; ref [25]; cited from earlier work.
In data set [4] the test system is Staphylococcus aureus ATCC 25923. Set-up: method as in PMID 34833864. Particulars: S. aureus 25923, planktonic cells; ref [25]; cited from earlier work.
In data set [5] the test system is B16 melanoma cells. Set-up: method as in PMID 34833864. Particulars: ref [25], cited from earlier work.
The test system of data set [6] is Escherichia coli ATCC 25922. In words: Microdilution MIC assay, planktonic E. coli. In kind it is cell-based. Particulars: this paper. Here is the method:
as §1
A general note: Dilution methods test growth across graded concentrations, often in twofold steps.

The test system of data set [7] is L929 cells. In words: Cell cycle analysis by flow cytometry, L929. In kind it is cell-based, mouse. Particulars: L929, 24 h, 1.56 and/or 6.25 µg/mL. On the procedure:
(§2) A flow cytometry analysis was used to check the possible influence of the tested compounds on the cell cycle of both cellular lines L929 and B16. Before treatment, 25,000 cells per well were seeded in 24-well plates and treated with 2 concentrations of the compounds (1.56 and 6.25 µg/mL) for 24 h. After treatment, cells were detached, washed with cold PBS, and then resuspended in cold PBS mixed with 100% ethanol and kept at −20 °C for at least 24 h for fixation. The following day, the cells were stained using a 0.1% Triton-X in PBS containing 0.2 mg/mL RNAase and 20 µg/mL propidium iodide. The samples were incubated for 30 min at 37 °C in the dark. After incubation with the staining solution, the cells were washed with PBS and resuspended in 100 µL PBS. The cell cycle measurement was made using CytoFLEX (Beckman Coulter, Brea, CA, USA) by recording 30,000 events/sample. All experiments were made in triplicate, each having at least 2 wells per condition. The data was evaluated using the CytoFLEX software.

The subject of data set [8] is Staphylococcus aureus ATCC 25923. In words: Microdilution MIC assay, planktonic S. aureus. In kind it is cell-based. Particulars: S. aureus 25923, planktonic cells, this paper. On the procedure: as §1
Data set [9] has as its system L929 fibroblasts. The data set can be described thus: MTT cellular viability assay, L929 fibroblasts. In kind it is cell-based, mouse. Particulars: L929, 24 or 48 h, concentrations up to 25 µg/mL. On the procedure: Mouse fibroblast cell line L929 (CCL-1, ATCC, USA) and mouse melanoma cell B16 (ATCC CRL-6475, USA) were grown in DMEM (Dulbecco’s Modified Eagle Medium) supplemented with 2 mM L-Glutamine, 10% fetal calf serum (FCS), 100 units/mL of penicillin, and 100 µg/mL of streptomycin. They were kept at 37 °C in a humidified incubator under an atmosphere containing 5% CO2. All cell-cultivation media and reagents were purchased from Biochrom AG (Berlin, Germany) and Sigma-Aldrich (Darmstadt, Germany).
To test cellular viability, we used the MTT assay (3-(4,5-dimethylthiazol-2-yl)-2,5-diphenyltetrazolium bromide) colorimetric assay as previously described. Briefly, L929 and B16 cells were seeded in 96-well plates at a density of 5000 cells/well and grown in the culture medium for 24 h. […] The absorbance of the samples was recorded at λ = 570 nm using a plate reader (Mithras 940, Berthold, Bad Wildbad, Germany). The data were corrected for background absorbance, and the viability was calculated using the following formula:% viable cells = [(A570 of treated cells)/(A570 of untreated cells)] × 100 (%)
Half-maximal inhibitory concentration (IC50) was determined by fitting the data with a sigmoidal logistic function using Origin 8.1 (Microcal Inc., Northampton, MA, USA) software.
Background: Tetrazolium assays rely on reduction of a dye to a coloured formazan, in cell work by metabolically active cells.

The subject of data set [10] is B16 cells. In words: Cell cycle analysis by flow cytometry, B16. In kind it is cell-based, mouse. The conditions noted are these: B16, 24 h, irrespective of the tested concentration (1.56 and/or 6.25 µg/mL). Here is the method:
as §2

The test system of data set [11] is L929 fibroblasts. Set-up: method as in PMID 34833864. Particulars: L929, time not stated; ref [25]; cited from earlier work.
Details of data set [12]: method as in PMID 34833864. The conditions noted are these: ref [25]; cited from earlier work.

In brackets after ≈: the same amount, converted by molar mass. Read-outs that look alike come from different tables or passages of the source.

Turning to “[Cu(phen)(dmtp)2(OH2)](ClO4)2@β-CD [(2a)@β-CD]”, in data set [1], the “K1:1 (stability constant)” value was 20.44 M^–1 and the “K1:2 (stability constant)” value amounted to 6 M^–1.

On to “[Cu(bipy)(dmtp)2(OH2)](ClO4)2·dmtp [(1)]”, for which the antibiofilm activity result in [2] is reported as “exhibit antibiofilm activity”. The results for the minimal inhibitory concentration (MIC) in data set [3] and in [4] were 0.71 mM and 0.18 mM, respectively. For the same compound, the “solubilization in water in the presence of β-CD” value in [1] is on record as “solubilized in water”. Besides, the “IC50 against B16 cells” value in data set [5] (B16, previous study) was “no IC50 could be calculated”.

For `OC[C@H]1O[C@@H]2O[C@H]3[C@H](O)[C@@H](O)[C@@H](O[C@H]4[C@H](O)[C@@H](O)[C@@H](O[C@H]5[C@H](O)[C@@H](O)[C@@H](O[C@H]6[C@H](O)[C@@H](O)[C@@H](O[C@H]7[C@H](O)[C@@H](O)[C@@H](O[C@H]8[C@H](O)[C@@H](O)[C@@H](O[C@H]1[C@H](O)[C@H]2O)O[C@@H]8CO)O[C@@H]7CO)O[C@@H]6CO)O[C@@H]5CO)O[C@@H]4CO)O[C@@H]3CO` [β-CD, β-cyclodextrin], the MIC – broadly, the smallest concentration in the dilution series that meets the test's criterion for growth inhibition – in data set [6] (Escherichia coli, ATCC25922, planktonic cells, read-out: MIC) was 8.81 mM (≈ 10000 µg/mL); in data set [6] (planktonic cells) it was “no activity”; in data set [8], “no activity”; in data set [8] (Staphylococcus aureus, ATCC25923, read-out: MIC) it was 8.81 mM (≈ 10000 µg/mL). In [7], the “change of number of cells in either cell cycle phase” value was “did not significantly alter”. Further, in data set [9], the “effect on viability of normal fibroblast cells” value is “did not affect the viability”. In addition, the “change of number of cells in cell cycle phases” value in data set [10] was “did not significantly alter”.

As to “[Cu(bipy)(dmtp)2(OH2)](ClO4)2@β-CD [(1a)@β-CD]”, the “Kc (stability constant, 1:1)” value in [1] amounted to 250 M^–1.

On to “[Cu(phen)(dmtp)2(OH2)](ClO4)2·dmtp [(2)]”, for which, in data set [2], the antibiofilm activity entry was “exhibit antibiofilm activity”. Also, the MIC in data set [3] is given as 0.34 mM; in data set [4], 0.04 mM. Besides, the “solubilization in water in the presence of β-CD” value in data set [1] is given as “solubilized in water”. Also, the IC50 (as a rule, the concentration that inhibits the measured activity by half) in data set [11] is 15 µM; in data set [5] (B16, 24 h, read-out: IC50 against B16 cells 24 h) it was 7.6 µM; in [5] (B16, 48 h, read-out: IC50 against B16 cells 48 h) it was 4.58 µM. Also, the “IC50 L929” value in data set [11] was 13.61 µg/mL. In addition, the “scavenging of OH· radicals” value in data set [12] is “not observed”. The “IC50 against B16 cells 24 h” value in data set [5] (B16, 24 h) was 6.88 µg/mL. Moreover, in data set [5] (B16, 48 h), the “IC50 against B16 cells 48 h” value was 4.15 µg/mL.

These data come from PMC9916925, “Copper (II) Species with Improved Anti-Melanoma and Antibacterial Activity by Inclusion in β-Cyclodextrin” (International Journal of Molecular Sciences, 2023).
